This is an account of results in patent US8541418B2, “Inhibitors of polo-like kinase” (Elan Pharmaceutical, Inc., priority 2009, dated 2013).

Assay [1] concerns the target T1, PLK1 (Homo sapiens, UniProt P53350). Nature of the assay: PLK TR-FRET peptide assay, PLK1. Format: biochemical. The note with it: GST-PLK1, 60 min reaction. For orientation: Time-resolved FRET reads energy transfer from a long-lived donor to a nearby acceptor.
Assay [2] concerns the target T2, PLK2 (Homo sapiens, UniProt Q9NYY3). Briefly: PLK TR-FRET peptide assay, PLK2. Format: biochemical. The note with it: PLK TR-FRET peptide assay, GST-PLK2, 60 min reaction; read-out: Plk2 IC50.
The target in assay [3] is PLK3 (Homo sapiens, UniProt Q9H4B4). Nature of the assay: PLK TR-FRET peptide assay, PLK3. Format: biochemical. The note with it: GST-PLK3, 15 min reaction, read-out: Plk3 IC50.
The target in assay [4] is KDR (Homo sapiens, UniProt P35968). Briefly: Kinase panel screening and titration, KDR. The following applies: read-out: inhibition of KDR.
Assay [5] concerns the target T1, PLK1. Nature of the assay: Kinase panel screening at InVitrogen, PLK1. The note with it: 10 μM compound.
In assay [6] the target is T2, PLK2. Briefly: Kinase panel screening at InVitrogen, PLK2. The note with it: 10 μM compound.
Assay [7] addresses ABL1 (Homo sapiens, UniProt P00519). Nature of the assay: Kinase panel screening and titration, ABL1. The following applies: read-out: inhibition of ABL1.
For assay [8], the system named is over 300 kinases, including CDK-1, CDK-2, CDK-5, CLK-1, CLK-2, CLK-3, CLK-4, NEK-1, NEK-2, NEK-4, NEK-6, NEK-7, MAP4K4 and STK16. Briefly: Kinase panel screening at InVitrogen, over 300 kinases. The note with it: 10 μM compound; all but 21 of the kinases, including CDK-1, CDK-2, CDK-5, CLK-1 to CLK-4, NEK-1, -2, -4, -6, -7, MAP4K4, STK16.

Some results are limits rather than exact numbers.

T2 sequence (Q9NYY3 whole entry): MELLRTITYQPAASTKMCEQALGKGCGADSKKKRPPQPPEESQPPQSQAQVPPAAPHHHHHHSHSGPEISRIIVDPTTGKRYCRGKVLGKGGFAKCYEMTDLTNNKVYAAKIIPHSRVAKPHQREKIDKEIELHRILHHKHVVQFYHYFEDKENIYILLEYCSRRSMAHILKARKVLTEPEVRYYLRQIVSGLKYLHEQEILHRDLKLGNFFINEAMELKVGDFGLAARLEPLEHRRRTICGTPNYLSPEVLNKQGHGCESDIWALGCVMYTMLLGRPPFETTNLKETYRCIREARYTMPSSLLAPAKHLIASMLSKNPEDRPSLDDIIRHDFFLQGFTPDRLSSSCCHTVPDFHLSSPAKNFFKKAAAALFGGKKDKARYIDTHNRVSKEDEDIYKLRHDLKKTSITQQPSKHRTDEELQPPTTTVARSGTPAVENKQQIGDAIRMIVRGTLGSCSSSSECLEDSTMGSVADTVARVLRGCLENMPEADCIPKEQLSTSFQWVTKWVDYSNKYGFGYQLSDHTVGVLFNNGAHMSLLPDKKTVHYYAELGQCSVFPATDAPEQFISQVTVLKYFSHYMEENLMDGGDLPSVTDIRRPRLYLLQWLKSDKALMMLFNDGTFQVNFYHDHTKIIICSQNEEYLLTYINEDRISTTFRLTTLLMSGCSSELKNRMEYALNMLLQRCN
T1 sequence (P53350 whole entry): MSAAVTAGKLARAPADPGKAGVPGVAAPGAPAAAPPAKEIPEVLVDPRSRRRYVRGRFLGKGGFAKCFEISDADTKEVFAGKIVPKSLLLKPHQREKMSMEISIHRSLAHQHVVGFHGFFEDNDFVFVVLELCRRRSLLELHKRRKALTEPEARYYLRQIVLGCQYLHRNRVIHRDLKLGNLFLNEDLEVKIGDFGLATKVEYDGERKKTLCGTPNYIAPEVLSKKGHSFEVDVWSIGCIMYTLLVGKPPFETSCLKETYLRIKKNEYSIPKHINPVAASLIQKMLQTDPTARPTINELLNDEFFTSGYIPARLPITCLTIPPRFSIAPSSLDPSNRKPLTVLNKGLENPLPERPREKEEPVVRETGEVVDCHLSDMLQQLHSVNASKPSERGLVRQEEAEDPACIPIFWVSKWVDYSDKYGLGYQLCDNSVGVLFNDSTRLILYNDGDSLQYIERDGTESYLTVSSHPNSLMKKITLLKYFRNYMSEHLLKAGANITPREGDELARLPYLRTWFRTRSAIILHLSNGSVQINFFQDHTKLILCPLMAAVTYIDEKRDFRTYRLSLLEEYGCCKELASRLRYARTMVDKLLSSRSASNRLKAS
Sequence of PLK3 (Q9H4B4 whole entry): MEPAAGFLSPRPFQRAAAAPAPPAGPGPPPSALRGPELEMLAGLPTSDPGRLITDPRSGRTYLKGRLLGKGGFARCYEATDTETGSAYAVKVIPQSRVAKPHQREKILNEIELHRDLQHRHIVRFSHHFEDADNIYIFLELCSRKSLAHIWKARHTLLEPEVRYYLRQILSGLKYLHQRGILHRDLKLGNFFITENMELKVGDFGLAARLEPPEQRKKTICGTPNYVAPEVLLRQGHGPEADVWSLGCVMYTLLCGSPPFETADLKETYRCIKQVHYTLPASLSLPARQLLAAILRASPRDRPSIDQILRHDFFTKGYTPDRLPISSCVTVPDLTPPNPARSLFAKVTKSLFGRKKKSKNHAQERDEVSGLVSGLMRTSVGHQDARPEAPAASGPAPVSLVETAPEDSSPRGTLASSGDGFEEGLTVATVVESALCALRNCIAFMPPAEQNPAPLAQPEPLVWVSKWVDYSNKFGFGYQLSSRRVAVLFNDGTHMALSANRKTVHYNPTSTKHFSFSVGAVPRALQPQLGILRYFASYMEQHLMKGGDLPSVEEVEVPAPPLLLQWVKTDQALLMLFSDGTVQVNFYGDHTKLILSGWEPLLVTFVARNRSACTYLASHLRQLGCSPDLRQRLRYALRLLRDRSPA
Sequence of KDR (P35968 20-1356): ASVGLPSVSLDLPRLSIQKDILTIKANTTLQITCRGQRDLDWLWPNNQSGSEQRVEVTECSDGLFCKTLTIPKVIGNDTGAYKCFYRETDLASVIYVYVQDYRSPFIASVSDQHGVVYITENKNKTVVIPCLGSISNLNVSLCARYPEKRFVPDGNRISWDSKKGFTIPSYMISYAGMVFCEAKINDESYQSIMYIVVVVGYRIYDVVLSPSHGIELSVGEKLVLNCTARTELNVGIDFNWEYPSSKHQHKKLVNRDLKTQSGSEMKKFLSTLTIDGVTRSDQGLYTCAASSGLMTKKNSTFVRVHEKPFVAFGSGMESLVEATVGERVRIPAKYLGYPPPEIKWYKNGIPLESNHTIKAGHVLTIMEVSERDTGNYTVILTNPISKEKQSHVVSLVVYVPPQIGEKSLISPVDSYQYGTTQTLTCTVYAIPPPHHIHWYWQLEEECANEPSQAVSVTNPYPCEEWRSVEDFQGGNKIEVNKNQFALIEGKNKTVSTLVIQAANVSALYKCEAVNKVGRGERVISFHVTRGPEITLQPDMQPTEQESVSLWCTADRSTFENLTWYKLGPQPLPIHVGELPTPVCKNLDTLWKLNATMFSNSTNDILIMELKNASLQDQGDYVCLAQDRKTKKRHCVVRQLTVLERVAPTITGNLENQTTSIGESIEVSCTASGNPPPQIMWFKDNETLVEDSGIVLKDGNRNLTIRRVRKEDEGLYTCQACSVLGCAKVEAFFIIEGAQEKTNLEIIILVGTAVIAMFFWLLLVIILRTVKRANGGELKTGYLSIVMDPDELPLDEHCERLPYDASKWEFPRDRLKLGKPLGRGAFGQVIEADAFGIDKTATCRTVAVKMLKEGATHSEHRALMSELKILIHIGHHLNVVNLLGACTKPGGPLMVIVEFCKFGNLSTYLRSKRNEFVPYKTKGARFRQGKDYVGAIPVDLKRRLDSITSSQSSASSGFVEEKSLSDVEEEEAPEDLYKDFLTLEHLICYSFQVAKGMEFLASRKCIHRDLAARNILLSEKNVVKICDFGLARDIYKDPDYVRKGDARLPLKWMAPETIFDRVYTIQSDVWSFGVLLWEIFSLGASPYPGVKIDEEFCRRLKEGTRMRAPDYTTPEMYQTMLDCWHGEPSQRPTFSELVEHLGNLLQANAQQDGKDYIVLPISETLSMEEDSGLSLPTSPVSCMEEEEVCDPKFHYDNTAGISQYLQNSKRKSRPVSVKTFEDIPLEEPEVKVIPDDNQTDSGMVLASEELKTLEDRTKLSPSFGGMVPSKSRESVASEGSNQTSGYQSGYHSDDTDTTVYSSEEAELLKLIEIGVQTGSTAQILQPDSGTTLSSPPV
Sequence of ABL1 (P00519 whole entry): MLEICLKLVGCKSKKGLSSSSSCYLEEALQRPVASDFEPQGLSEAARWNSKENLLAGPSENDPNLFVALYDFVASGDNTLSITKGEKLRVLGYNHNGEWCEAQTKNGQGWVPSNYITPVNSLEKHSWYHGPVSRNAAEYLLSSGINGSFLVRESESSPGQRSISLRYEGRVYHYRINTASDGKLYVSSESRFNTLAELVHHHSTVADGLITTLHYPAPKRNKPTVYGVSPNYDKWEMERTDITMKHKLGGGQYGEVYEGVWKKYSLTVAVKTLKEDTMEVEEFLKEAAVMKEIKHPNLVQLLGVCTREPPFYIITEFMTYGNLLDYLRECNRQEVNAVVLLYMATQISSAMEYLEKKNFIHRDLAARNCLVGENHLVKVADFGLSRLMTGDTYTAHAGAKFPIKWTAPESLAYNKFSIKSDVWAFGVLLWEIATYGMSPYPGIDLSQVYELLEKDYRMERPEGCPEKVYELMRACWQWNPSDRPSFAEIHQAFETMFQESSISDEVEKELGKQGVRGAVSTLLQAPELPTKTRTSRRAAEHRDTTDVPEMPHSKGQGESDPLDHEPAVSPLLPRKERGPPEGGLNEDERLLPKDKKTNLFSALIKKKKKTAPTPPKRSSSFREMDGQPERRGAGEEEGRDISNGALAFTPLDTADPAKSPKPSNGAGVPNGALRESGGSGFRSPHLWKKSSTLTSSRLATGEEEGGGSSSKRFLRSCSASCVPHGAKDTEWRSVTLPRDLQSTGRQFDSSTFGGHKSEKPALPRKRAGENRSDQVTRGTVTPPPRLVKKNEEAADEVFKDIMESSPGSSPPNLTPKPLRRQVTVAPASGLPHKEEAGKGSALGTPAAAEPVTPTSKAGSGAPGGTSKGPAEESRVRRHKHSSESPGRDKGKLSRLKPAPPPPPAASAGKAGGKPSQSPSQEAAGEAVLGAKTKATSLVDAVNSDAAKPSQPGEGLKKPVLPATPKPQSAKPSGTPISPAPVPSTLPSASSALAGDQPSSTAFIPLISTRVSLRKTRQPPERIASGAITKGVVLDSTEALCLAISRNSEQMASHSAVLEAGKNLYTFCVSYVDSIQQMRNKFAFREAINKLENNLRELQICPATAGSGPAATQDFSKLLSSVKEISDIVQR

Regarding `CC[C@@H]1C(=O)N(C)c2cnc(-n3ccnc3-c3cccc(F)c3)nc2N1C1CCOC1` (stereo partly drawn) [Example 192, (7R)-7-ethyl-2-(2-(3-fluorophenyl)-1H-imidazol-1-yl)-5-methyl-8-(tetrahydrofuran-3-yl)-7,8-dihydropteridin-6(5H)-one], the concentration for half-maximal inhibition (IC50) was below 1 µM in assay [1], below 1 µM in assay [2] and 1 to 10 µM in assay [3]. Moreover, the inhibition at 10 µM in assay [4] and in assay [7] was above 80% in each case. In addition, the “activity against PLK1 in kinase panel” value in assay [5] was “potent”. Besides, the “activity against PLK2 in kinase panel” value in assay [6] is given as “potent”. Moreover, the “inhibition of kinases in panel of over 300” value in assay [8] is reported as “below 40%”.

Broadly, the IC50 is the concentration that gives 50% inhibition. In general, inhibition refers to the drop in the measured response relative to a control, in per cent.
